What is called IC50 is the concentration that inhibits the measured activity by half.

In assay [1] the target is T1, KRAS-G12C (C51S/C80L/C118S) (Homo sapiens, UniProt P01116, C118S/C51S/C80L/G12C).
T1 construct: N-terminal biotin-acceptor peptide […]
In words: SOS-catalyzed nucleotide exchange assay (Procedure A, TR-FRET). It counts as biochemical. The note with it: 60 min preincubation, SOS + GTP, read-out: KRAS G12C GNE IC50. An outline of the steps: (§1)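 Preformed biotinylated RAS–Bodipy-GDP/Tb-streptavidin complex preincubated with compound 60 min at room temperature, then SOS plus GTP (3 mM final) added. Exchange times: G13D 30 min, G12C/D 60 min, G12V 90 min. Final RAS/SOS: G12C 3 nM/40 nM, G12D 1 nM/40 nM, G12V 1.25 nM/160 nM, G13D 1.25 nM/0 nM. TR-FRET 520/495 ratio, four-parameter fit.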

For assay [2], the target named is T2, KRAS-G12V (Homo sapiens, UniProt P01116, G12V).
T2 construct: N-terminal biotin-acceptor peptide […]
The description is as above. Type of assay: biochemical. The note with it: 60 min preincubation, SOS + GTP, read-out: KRAS G12V GNE IC50. An outline of the steps: as §1

The target in assay [3] is T3, KRAS-G13D (Homo sapiens, UniProt P01116, G13D).
T3 construct: N-terminal biotin-acceptor peptide […]
Described as above. It counts as biochemical. The following applies: 60 min preincubation, GTP, read-out: KRAS G13D GNE IC50. An outline of the steps: as §1

For assay [4], the target named is T4, KRAS-G12D (Homo sapiens, UniProt P01116, G12D).
T4 construct: N-terminal biotin-acceptor peptide […]
The assay is described as above. Type of assay: biochemical. The following applies: 60 min preincubation, SOS + GTP, read-out: KRAS G12D GNE IC50. A digest of the protocol: as §1

For assay [5], the system named is PANC08.13 cells (homozygous KRAS-G12D activating mutation). In words: Cellular phospho-ERK assay in G12D cell line. The note with it: Homo sapiens, PANC-08-13, 2 hours compound incubation, ratio of p-ERK vs. total ERK, read-out: PANC 0813 pERK IC50. Type of assay: cell-based. An outline of the steps: (§2)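 Cells (10,000-15,000/well) were seeded overnight, then treated for 2 h at 37 °C with a 10-point 1:3 titration from 30 μM final. Lysates were assayed by AlphaLISA SureFire Ultra multiplex, with the p-ERK/total-ERK ratio as read-out; IC50 came from a 4-parameter logistic fit.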

Assay [6] relates to SW620 cells (homozygous KRAS-G12V activating mutation). In words: Cellular phospho-ERK assay in G12V cell line. It counts as cell-based. The following applies: Homo sapiens, SW-620, 2 hours compound incubation, ratio of p-ERK vs. total ERK, read-out: SW620 pERK IC50. A digest of the protocol: as §2
The target in assay [7] is HRAS (Homo sapiens, UniProt P01112). As to the kind of experiment: SOS-catalyzed nucleotide exchange assay (Procedure A, TR-FRET). Type of assay: biochemical. The note with it: 60 min preincubation, SOS + GTP, read-out: HRAS GNE IC50. A digest of the protocol:
(§3)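 Biotinylated WT-sequence HRAS or NRAS (1.25 nM final) loaded with Bodipy-GDP plus Tb-streptavidin, preincubated 60 min with compound (10-point, 3-fold). Exchange started with human SOS (40 nM) and 3 mM GTP, 60 min at room temperature, pH 7.5 Mg buffer. TR-FRET 520/495 ratio normalised to DMSO and saturating inhibitor, four-parameter fit.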
For orientation: TR-FRET usually uses a lanthanide donor and a delayed reading to cut background.

Assay [8] deals with NRAS (Homo sapiens, UniProt P01111). The description is as above. It counts as biochemical. The note with it: 60 min preincubation, SOS + GTP, read-out: NRAS GNE IC50. A digest of the protocol:
as §3

Chain of NRAS (P01111 with tags, fused parts or gaps): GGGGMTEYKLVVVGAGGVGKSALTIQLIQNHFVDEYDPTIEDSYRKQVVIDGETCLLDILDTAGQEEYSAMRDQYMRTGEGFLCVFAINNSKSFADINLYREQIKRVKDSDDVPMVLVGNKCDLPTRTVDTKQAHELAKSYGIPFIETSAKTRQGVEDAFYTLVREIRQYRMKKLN
Chain of HRAS (P01112 with tags, fused parts or gaps): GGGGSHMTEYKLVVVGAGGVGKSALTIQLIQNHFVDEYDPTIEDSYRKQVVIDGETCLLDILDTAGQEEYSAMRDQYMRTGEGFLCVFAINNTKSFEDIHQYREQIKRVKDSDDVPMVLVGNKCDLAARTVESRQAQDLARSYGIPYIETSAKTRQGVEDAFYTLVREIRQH
T1 sequence (P01116 with tags, fused parts or gaps isoform P01116-2 G12C/C51S/C80L/C118S): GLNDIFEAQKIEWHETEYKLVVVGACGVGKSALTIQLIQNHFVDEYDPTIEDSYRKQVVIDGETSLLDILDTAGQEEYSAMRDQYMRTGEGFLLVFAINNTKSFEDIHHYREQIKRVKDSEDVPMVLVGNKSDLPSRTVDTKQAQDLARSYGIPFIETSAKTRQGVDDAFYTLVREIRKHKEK
T3 sequence (P01116 with tags, fused parts or gaps isoform P01116-2 G13D): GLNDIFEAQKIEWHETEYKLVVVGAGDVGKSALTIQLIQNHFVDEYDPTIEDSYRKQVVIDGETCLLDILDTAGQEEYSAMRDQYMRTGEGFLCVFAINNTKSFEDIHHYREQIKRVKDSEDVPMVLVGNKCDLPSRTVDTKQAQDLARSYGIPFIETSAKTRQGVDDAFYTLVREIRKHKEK
T2 sequence (P01116 with tags, fused parts or gaps isoform P01116-2 G12V): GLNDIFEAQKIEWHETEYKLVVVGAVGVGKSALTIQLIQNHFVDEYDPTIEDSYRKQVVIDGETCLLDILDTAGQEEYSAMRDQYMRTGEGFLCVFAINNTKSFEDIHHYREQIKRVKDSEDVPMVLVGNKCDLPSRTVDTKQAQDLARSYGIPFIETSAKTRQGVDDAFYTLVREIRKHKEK
T4 sequence (P01116 with tags, fused parts or gaps isoform P01116-2 G12D): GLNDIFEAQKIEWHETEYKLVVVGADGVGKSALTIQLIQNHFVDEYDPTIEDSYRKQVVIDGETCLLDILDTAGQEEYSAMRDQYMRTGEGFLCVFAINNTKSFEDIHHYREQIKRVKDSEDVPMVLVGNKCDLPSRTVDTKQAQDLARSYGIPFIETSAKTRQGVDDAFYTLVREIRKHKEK

For the compound `Cc1cc2[nH]ncc2c(-c2c(F)cc3c(N4CCCOCC4)nc(OC[C@@]45CCCN4C[C@H](F)C5)nc3c2F)c1C(F)(F)F` [Ex. 44, 4-(6,8-difluoro-2-(((2R,7aS)-2-fluorotetrahydro-1H-pyrrolizin-7a(5H)-yl)methoxy)-7-(6-methyl-5-(trifluoromethyl)-1H-indazol-4-yl)quinazolin-4-yl)-1,4-oxazepane], the IC50 in assay [1] was 96.3 nM; in assay [2], 235 nM; in assay [3] it was 365 nM; in assay [4] it was 505 nM; in assay [5], 1300 nM; in assay [6], 901 nM. Further, the IC50 in assay [7] and in assay [8] was more than 11100 nM throughout.

With `Cc1cc(N)nc(-c2c(Cl)cc3c(N4CCCCOCC4)nc(OC[C@@]45CCCN4C[C@H](F)C5)nc3c2F)c1C(F)(F)F` [Ex. 39, 6-(6-chloro-8-fluoro-2-(((2R,7aS)-2-fluorotetrahydro-1H-pyrrolizin-7a(5H)-yl)methoxy)-4-(1,4-oxazocan-4-yl)quinazolin-7-yl)-4-methyl-5-(trifluoromethyl)pyridin-2-amine], the IC50 in assay [1] was found to be 63.1 nM; in assay [2], 32.2 nM; in assay [3], 145 nM; in assay [4], 515 nM; in assay [5], 1320 nM; in assay [6], 422 nM. Also, the IC50 in assay [7] and in assay [8] was more than 11100 nM in each case.

For `N#Cc1c(N)sc2c(F)ccc(-c3c(Cl)cc4c(N5CCCOCC5)nc(OC[C@@]56CCCN5C[C@H](F)C6)nc4c3F)c12` [Ex. 4, 2-amino-4-(6-chloro-8-fluoro-2-(((2R,7aS)-2-fluorotetrahydro-1H-pyrrolizin-7a(5H)-yl)methoxy)-4-(1,4-oxazepan-4-yl)quinazolin-7-yl)-7-fluorobenzo[b]thio-phene-3-carbonitrile], the IC50 in assay [1] was determined as 15.5 nM; in assay [2], 3.33 nM; in assay [3], 7.62 nM; in assay [4], 7.62 nM; in assay [5], 56.2 nM; in assay [6], 48.6 nM. The IC50 in assay [7] and in assay [8] was more than 11100 nM each time.

Consider `CC(C)NC[C@@]1(COc2nc(N3CCCOCC3)c3cc(Cl)c(-c4ccc(F)c5sc(N)c(C#N)c45)c(F)c3n2)CC1(F)F` [compound 26, 2-amino-4-(6-chloro-2-(((R)-2,2-difluoro-1-((isopropylamino)meth-yl)cyclopropyl)meth-oxy)-8-fluoro-4-(1,4-oxazepan-4-yl)quinazolin-7-yl)-7-fluorobenzo[b]thiophene-3-carbonitrile], for which the IC50 in assay [1] is 54.9 nM; in assay [2] it was 22.6 nM; in assay [3], 59.4 nM; in assay [4], 177 nM; in assay [5], 992 nM; in assay [6] it was 357 nM. Further, the IC50 in assay [7] and in assay [8] was more than 11100 nM in each case.

For the compound `C[C@@H]1CCOCCN1c1nc(OC[C@@]23CCCN2C[C@H](F)C3)nc2c(F)c(-c3ccc(F)c4sc(N)c(C#N)c34)c(Cl)cc12` [compound 7, 2-amino-4-(6-chloro-8-fluoro-2-(((2R,7aS)-2-fluorotetrahydro-1H-pyrrolizin-7a(5H)-yl)methoxy)-4-((R)-5-methyl-1,4-oxazepan-4-yl)quinazolin-7-yl)-7-fluorobenzo[b]thio-phene-3-carbonitrile], the half-inhibitory concentration (IC50) in assay [1] was determined as 13.1 nM; in assay [2], 6 nM; in assay [3], 8.55 nM; in assay [4], 9.18 nM; in assay [5], 192 nM; in assay [6], 67.4 nM. Further, the IC50 in assay [7] and in assay [8] was more than 11100 nM in each case.

With `CC1CCN(c2nc(OC[C@@]34CCCN3C[C@H](F)C4)nc3c(F)c(-c4ccc(F)c5sc(N)c(C#N)c45)c(Cl)cc23)CCO1` (stereo partly drawn) [compound 10, 2-amino-4-(6-chloro-8-fluoro-2-(((2R,7aS)-2-fluorotetrahydro-1H-pyrrolizin-7a(5H)-yl)methoxy)-4-(7-methyl-1,4-oxazepan-4-yl)quinazolin-7-yl)-7-fluorobenzo[b]thio-phene-3-carbonitrile], the IC50 in assay [1] was found to be 47.3 nM; in assay [2], 41.7 nM; in assay [3] it was 110 nM; in assay [4], 700 nM; in assay [5], 2600 nM; in assay [6], 538 nM. Further, the IC50 in assay [7] and in assay [8] was more than 11100 nM in each case.

On to `C[C@H]1CCOCCN1c1nc(OC[C@@]23CCCN2C[C@H](F)C3)nc2c(F)c(-c3ccc(F)c4sc(N)c(C#N)c34)c(Cl)cc12` (single isomer, unassigned) [Ex. 19], for which the half-inhibitory concentration (IC50) in assay [1] amounted to 6.07 nM; in assay [2], 2.32 nM; in assay [3], 2.37 nM; in assay [4] it was 2.4 nM; in assay [5] it was 34.2 nM; in assay [6], 15 nM. In addition, the IC50 in assay [7] is 2070 nM; in assay [8], 4310 nM.

`CC1COCCN(c2nc(OC[C@@]34CCCN3C[C@H](F)C4)nc3c(F)c(-c4ccc(F)c5sc(N)c(C#N)c45)c(Cl)cc23)C1` (stereo partly drawn) [compound 8, 2-amino-4-(6-chloro-8-fluoro-2-(((2R,7aS)-2-fluorotetrahydro-1H-pyrrolizin-7a(5H)-yl)methoxy)-4-(6-methyl-1,4-oxazepan-4-yl)quinazolin-7-yl)-7-fluorobenzo[b]thio-phene-3-carbonitrile]: the half-inhibitory concentration (IC50) in assay [1] came out at 20.8 nM; in assay [2], 7.59 nM; in assay [3], 12.8 nM; in assay [4], 9.92 nM; in assay [5] it was 138 nM; in assay [6], 104 nM. Besides, the IC50 in assay [7] and in assay [8] was more than 11100 nM in each case.

(Values after patent US20260083750A1, “SMALL MOLECULE INHIBITORS OF KRAS PROTEINS” (MERCK SHARP & DOHME LLC, priority 2022, published 2026).)
